From ChEMBL document CHEMBL3124797, “Copper complexes with phosphonium containing hydrazone ligand: topoisomerase inhibition and cytotoxicity study” (Eur J Med Chem, 2014)

Key:
A549 = experiment: Cytotoxicity against human A549 cells after 72 hrs by MTT assay; assay type: functional, cell-based; details: A549, 72 h
PC-3 = experiment: Cytotoxicity against human PC3 cells after 72 hrs by MTT assay; assay type: functional, cell-based; details: PC-3, 72 h
MRC5 [1] = experiment: Cytotoxicity against human MRC5 cells after 72 hrs by MTT assay; assay type: cell-based; details: MRC5, 72 h
MRC5 [2] = experiment: Selectivity index, ratio of IC50 for human MRC5 cells to IC50 for human PC3 cells; assay type: functional

Structure (SMILES) | IC50 (A549) [µM] | IC50 (PC-3) [µM] | IC50 (MRC5 [1]) [µM] | Ratio IC50 (MRC5 [2])
O.O=C(N/N=C/c1cc(C[P+](c2ccccc2)(c2ccccc2)c2ccccc2)ccc1O)c1ccccc1.[Cl-] | > 30 | 14.4 | 12.2 | 0.85
O=Cc1cc(C[P+](c2ccccc2)(c2ccccc2)c2ccccc2)ccc1O | > 30 | > 30 | > 30 | 
